Experimental data taken from US20250009819A1, “NOVEL PROBIOTICS AND USE THEREOF” (PBLBIOLAB CO., LTD., priority 2021, published 2025).

Legend:
[1] = Antioxidant activity (DPPH, in vitro); assay type: biochemical; conditions: DPPH 0.2 mM; lactic acid bacteria suspension 1×10^8 CFU/ml; 37° C. 20 min
Procedure: DPPH (2,2-Diphenyl-1-picrylhydrazyl) was dissolved in ethanol to a concentration of 0.2 mM to prepare DPPH solution. Lactic acid bacteria suspension (1×10^8 CFU/ml) or vitamin C solution (1 g/ml) was added to 0.1 ml of the above DPPH solution and incubated at 37° C. for 20 min. The culture was centrifuged at 3000 rpm for 5 min to obtain a supernatant. The absorbance of the supernatant was then measured at 517 nm and the antioxidant activity of the lactic acid bacteria was calculated.

TNF-α = TNF-α expression in LPS-treated macrophages (ELISA); assay type: cell-based, C57BL/6 mice; conditions: macrophages treated with lactic acid bacteria and LPS for 24 hours
Procedure: (§1) C57BL/6 mice (male, 6 weeks old, 20-23 g) were subjected to an intraperitoneal injection of 2 ml of sterile 4% thioglycolate solution, and after 96 hours, the mice were anesthetized and injected with 8 ml of RPMI 1640 medium through the peritoneal cavity. Then, after 5-10 minutes, the RPMI medium (macrophages) in the mouse peritoneal cavity was extracted, centrifuged at 1000 g for 10 minutes, and washed again with RPMI 1640 medium twice. Macrophages were seeded in 24-well plates at a count of 0.5×10^6 in each well, and treated with lactic acid bacteria and LPS, an inflammatory response-inducing substance, for 24 hours. TNF-α and IL-10 cytokine expression amount in the culture supernatant was then measured by ELISA Kit.

IL-10 = IL-10 expression in LPS-treated macrophages (ELISA); assay type: cell-based, C57BL/6 mice; conditions: macrophages treated with lactic acid bacteria and LPS for 24 hours
Procedure: as §1

BDNF = BDNF expression in SH-SY5Y cells; assay type: cell-based; conditions: LPS 200 ng/ml; lactic acid bacteria 1×10^4 CFU/ml; 24 h
Procedure: (§2) SH-SY5Y cells obtained from the Korean Cell Line Bank were cultured in DMEM medium supplemented with 10% FBS and 1% antibiotics, and dispensed at 2×10^6 cells per well in a 12-well plate. Then, LPS (200 ng/ml) was added to each well along with lactic acid bacteria (1×10^4 CFU/ml) and incubated for 24 h. The cells and supernatants were collected, sonicated and centrifuged, and the amount of BDNF in the supernatant was measured by ELISA kit.

Neuropeptide Y (NPY) = Neuropeptide Y (NPY) expression in PC12 phaeochromocytoma cells; assay type: cell-based; conditions: LPS 200 ng/ml; lactic acid bacteria 1×10^4 CFU/ml; 24 hr
Procedure: as §2, with “PC12” for “SH-SY5Y”, “1×10^6” for “2×10^6”, “hr.” for “h.”, “NPY” for “BDNF”

Clostridium difficile = Clostridium difficile proliferation in gut microbiota (PCR); assay type: cell-based; conditions: human feces culture; lactic acid bacteria 1×10^6 CFU/mL; anaerobic 24 hr
Procedure: Fresh human feces were suspended in anaerobic medium (GAM, Nissui Pharmaceutical Co., Ltd., Japan) and allowed to stand for 10 min. The supernatant was diluted with 10,000-fold anaerobic medium, 0.05 mL of the dilution was transplanted into 5 mL of freshly made anaerobic medium, and lactic acid bacteria (1×10^6 CFU/mL) were implanted and incubated anaerobically for 24 hr. This culture medium was divided into two, one was centrifuged (5000 rpm, 20 minutes), the precipitated DNA was isolated using the QIAamp DNA stool mini kit (Qiagen, Germany), and Clostridium difficile (primer: forward, 5′-[…]-3′ (SEQ ID NO: 4); reverse, 5′-[…]-3′ (SEQ ID NO: 5) was quantified by PCR. The reaction product was first treated at 95° C. for 30 seconds, followed by 42 cycles of 5 seconds at 95° C. and 30 seconds at 72° C. for analysis. In addition, one culture medium was sonicated, centrifuged, and filter-sterilized, and the amount of LPS in the supernatant was measured using an ELISA kit.

gut microbiota = test: LPS production in gut microbiota (ELISA); assay type: cell-based; conditions: human feces culture; lactic acid bacteria 1×10^6 CFU/mL; anaerobic 24 hr
Procedure: Fresh human feces were suspended in anaerobic medium (GAM, Nissui Pharmaceutical Co., Ltd., Japan) and allowed to stand for 10 min. The supernatant was diluted with 10,000-fold anaerobic medium, 0.05 mL of the dilution was transplanted into 5 mL of freshly made anaerobic medium, and lactic acid bacteria (1×10^6 CFU/mL) were implanted and incubated anaerobically for 24 hr.

Row | Substance | Antioxidant activity [1] | Macrophage Inhibition of TNF-α expression (TNF-α) | Macrophage Induction of IL-10 expression (IL-10) | SHSY5Y cell Induction of BDNF expression (BDNF) | PC12 cell Induction of NPY expression (Neuropeptide Y (NPY)) | Gut microbiota Inhibition of difficile bacteria proliferation (Clostridium difficile) | Gut microbiota Inhibition of LPS production (gut microbiota)
1 | Bifidobacterium adolescentis NK221 | + (weakly (+; >20-60%)) | − (not or less than 20% (−; <20%)) | − (not or less than 20% (−; <20%)) | − (not or less than 20% (−; <20%)) | + (weakly (+; >20-60%)) | + (weakly (+; >20-60%)) | + (weakly (+; >20-60%))
2 | Bifidobacterium adolescentis NK220 | + (weakly (+; >20-60%)) | + (weakly (+; >20-60%)) | + (weakly (+; >20-60%)) | + (weakly (+; >20-60%)) | − (not or less than 20% (−; <20%)) | + (weakly (+; >20-60%)) | − (not or less than 20% (−; <20%))
3 | Lactobacillus casei NK195 | + (weakly (+; >20-60%)) | + (weakly (+; >20-60%)) | + (weakly (+; >20-60%)) | − (not or less than 20% (−; <20%)) | − (not or less than 20% (−; <20%)) | + (weakly (+; >20-60%)) | − (not or less than 20% (−; <20%))
4 | Lactobacillus rhamnosus NK211 | + (weakly (+; >20-60%)) | + (weakly (+; >20-60%)) | + (weakly (+; >20-60%)) | − (not or less than 20% (−; <20%)) | − (not or less than 20% (−; <20%)) | + (weakly (+; >20-60%)) | − (not or less than 20% (−; <20%))
5 | Lactobacillus casei NK196 | ++ (strongly (++; >60-90%)) | − (not or less than 20% (−; <20%)) | − (not or less than 20% (−; <20%)) | − (not or less than 20% (−; <20%)) | + (weakly (+; >20-60%)) | + (weakly (+; >20-60%)) | + (weakly (+; >20-60%))
6 | Lactobacillus casei NK193 | + (weakly (+; >20-60%)) | + (weakly (+; >20-60%)) | + (weakly (+; >20-60%)) | + (weakly (+; >20-60%)) | − (not or less than 20% (−; <20%)) | − (not or less than 20% (−; <20%)) | + (weakly (+; >20-60%))
7 | Lactobacillus gasseri NK187 | + (weakly (+; >20-60%)) | + (weakly (+; >20-60%)) | − (not or less than 20% (−; <20%)) | + (weakly (+; >20-60%)) | − (not or less than 20% (−; <20%)) | + (weakly (+; >20-60%)) | + (weakly (+; >20-60%))
8 | Lactobacillus paracasei NK192 | ++ (strongly (++; >60-90%)) | − (not or less than 20% (−; <20%)) | − (not or less than 20% (−; <20%)) | − (not or less than 20% (−; <20%)) | − (not or less than 20% (−; <20%)) | − (not or less than 20% (−; <20%)) | –
9 | Lactococcus graminis NK207 | − (not or less than 20% (−; <20%)) | – | – | − (not or less than 20% (−; <20%)) | − (not or less than 20% (−; <20%)) | + (weakly (+; >20-60%)) | + (weakly (+; >20-60%))
10 | Bifidobacterium longum NK217 | + (weakly (+; >20-60%)) | + (weakly (+; >20-60%)) | – | − (not or less than 20% (−; <20%)) | − (not or less than 20% (−; <20%)) | − (not or less than 20% (−; <20%)) | − (not or less than 20% (−; <20%))
11 | Lactobacillus paracasei NK190 | + (weakly (+; >20-60%)) | − (not or less than 20% (−; <20%)) | − (not or less than 20% (−; <20%)) | − (not or less than 20% (−; <20%)) | + (weakly (+; >20-60%)) | + (weakly (+; >20-60%)) | –
12 | Lactobacillus gasseri NK188 | + (weakly (+; >20-60%)) | + (weakly (+; >20-60%)) | + (weakly (+; >20-60%)) | − (not or less than 20% (−; <20%)) | − (not or less than 20% (−; <20%)) | + (weakly (+; >20-60%)) | –
13 | Lactococcus graminis NK206 | + (weakly (+; >20-60%)) | − (not or less than 20% (−; <20%)) | − (not or less than 20% (−; <20%)) | – | + (weakly (+; >20-60%)) | – | –
14 | Bifidobacterium pseudocatenulatum NK229 | + (weakly (+; >20-60%)) | + (weakly (+; >20-60%)) | – | + (weakly (+; >20-60%)) | − (not or less than 20% (−; <20%)) | − (not or less than 20% (−; <20%)) | − (not or less than 20% (−; <20%))
15 | Lactobacillus paracasei NK191 | + (weakly (+; >20-60%)) | − (not or less than 20% (−; <20%)) | + (weakly (+; >20-60%)) | + (weakly (+; >20-60%)) | + (weakly (+; >20-60%)) | − (not or less than 20% (−; <20%)) | –
16 | Lactobacillus sakei NK199 | + (weakly (+; >20-60%)) | + (weakly (+; >20-60%)) | – | − (not or less than 20% (−; <20%)) | − (not or less than 20% (−; <20%)) | − (not or less than 20% (−; <20%)) | − (not or less than 20% (−; <20%))
